Measurements: US8309540
Like-named read-outs stand apart in the source and are kept apart here.

COC(=O)[C@@H]1C[C@@H]2CN1C(=O)[C@H](C1CCCCC1)NC(=O)OCC(C)(C)C/C=C/c1cc3c(cc(=O)[nH]c3cc1OC)O2
ring closure, yield of all isomers (from C=CCC(C)(C)COC(=O)N[C@H](C(=O)N1C[C@H](Oc2cc(=O)[nH]c3cc(OC)c(C=C)cc23)C[C@H]1C(=O)OC)C1CCCCC1, rcm bond, Zhan 1B, DCM, 4.96 mM, 40.0 °C, 32.0 h): 99.5%

CCOc1cc2c3cc(c(OC)cc3n1)[C@H]1C[C@@H]1CC(C)(C)COC(=O)N[C@@H](C1CCCC1)C(=O)N1C[C@@H](C[C@H]1C(=O)OC)O2
ring closure, yield of all isomers (from CCOc1cc(O[C@H]2CN[C@H](C(=O)OC)C2)c2cc(C3CC3CC(C)(C)COC(=O)N[C@H](C(=O)O)C3CCCC3)c(OC)cc2n1, amide bond, HATU/DIEA, DCM, 7.1 mM, 18.0 h): 65.5%

CCOc1cc2c3cc(c(OC)cc3n1)/C=C/C[C@@H]1CCC[C@H]1OC(=O)N[C@@H](C1CCCC1)C(=O)N1C[C@@H](C[C@H]1C(=O)OC)O2
ring closure, yield of all isomers (from C=CC[C@@H]1CCC[C@H]1OC(=O)N[C@H](C(=O)N1C[C@H](Oc2cc(OCC)nc3cc(OC)c(C=C)cc23)C[C@H]1C(=O)OC)C1CCCC1, rcm bond, Zhan 1b, DCE, 8.78 mM, 70.0 °C, 21.0 h): 90.9%
